In brackets after ≈: the same amount, converted by molar mass. Values belong to the compound of their own block, whether it stands above or below them.
How the values were obtained:
BaF3 = test: Antiproliferative activity against wild type mouse BaF3 cells assessed as reduction in cell growth incubated for 2 to 3 days by Bright-Glo luciferase assay
[1] = biological target: ALK tyrosine kinase receptor (Homo sapiens, UniProt Q9UM73); test: Inhibition of ALK (unknown origin)
[2] = Clearance in mouse at 5 mg/kg, iv; format: ADME, organism-based; details: in vivo
[3] = AUC in rat at 10 mg/kg, po; format: ADME, organism-based; parameters: dose 10 mg/kg; details: in vivo
[4] = Clearance in rat at 3 mg/kg, iv; format: ADME, organism-based; details: in vivo
[5] = Metabolic stability in mouse liver microsomes assessed as intrinsic clearance; format: ADME, Microsome; details: read-out: CLH
[6] = AUC in mouse at 20 mg/kg, po; format: ADME, organism-based; parameters: dose 20 mg/kg; details: in vivo
[7] = Cmax in mouse at 20 mg/kg, po; format: ADME, organism-based; parameters: route oral, dose 20 mg/kg; details: in vivo
[8] = Oral bioavailability in mouse at 20 mg/kg; format: ADME, organism-based; details: in vivo
[9] = Volume of distribution at steady state in mouse at 5 mg/kg, iv; format: ADME, organism-based; details: in vivo, read-out: Vdss
[10] = Metabolic stability in rat liver microsomes assessed as intrinsic clearance; format: ADME, Microsome; details: read-out: CLH
[11] = biological target: Voltage-gated inwardly rectifying potassium channel KCNH2 (Homo sapiens, UniProt Q12809); test: Inhibition of human ERG by dofetilide binding assay
Sequence of Voltage-gated inwardly rectifying potassium channel KCNH2 (Q12809 whole entry): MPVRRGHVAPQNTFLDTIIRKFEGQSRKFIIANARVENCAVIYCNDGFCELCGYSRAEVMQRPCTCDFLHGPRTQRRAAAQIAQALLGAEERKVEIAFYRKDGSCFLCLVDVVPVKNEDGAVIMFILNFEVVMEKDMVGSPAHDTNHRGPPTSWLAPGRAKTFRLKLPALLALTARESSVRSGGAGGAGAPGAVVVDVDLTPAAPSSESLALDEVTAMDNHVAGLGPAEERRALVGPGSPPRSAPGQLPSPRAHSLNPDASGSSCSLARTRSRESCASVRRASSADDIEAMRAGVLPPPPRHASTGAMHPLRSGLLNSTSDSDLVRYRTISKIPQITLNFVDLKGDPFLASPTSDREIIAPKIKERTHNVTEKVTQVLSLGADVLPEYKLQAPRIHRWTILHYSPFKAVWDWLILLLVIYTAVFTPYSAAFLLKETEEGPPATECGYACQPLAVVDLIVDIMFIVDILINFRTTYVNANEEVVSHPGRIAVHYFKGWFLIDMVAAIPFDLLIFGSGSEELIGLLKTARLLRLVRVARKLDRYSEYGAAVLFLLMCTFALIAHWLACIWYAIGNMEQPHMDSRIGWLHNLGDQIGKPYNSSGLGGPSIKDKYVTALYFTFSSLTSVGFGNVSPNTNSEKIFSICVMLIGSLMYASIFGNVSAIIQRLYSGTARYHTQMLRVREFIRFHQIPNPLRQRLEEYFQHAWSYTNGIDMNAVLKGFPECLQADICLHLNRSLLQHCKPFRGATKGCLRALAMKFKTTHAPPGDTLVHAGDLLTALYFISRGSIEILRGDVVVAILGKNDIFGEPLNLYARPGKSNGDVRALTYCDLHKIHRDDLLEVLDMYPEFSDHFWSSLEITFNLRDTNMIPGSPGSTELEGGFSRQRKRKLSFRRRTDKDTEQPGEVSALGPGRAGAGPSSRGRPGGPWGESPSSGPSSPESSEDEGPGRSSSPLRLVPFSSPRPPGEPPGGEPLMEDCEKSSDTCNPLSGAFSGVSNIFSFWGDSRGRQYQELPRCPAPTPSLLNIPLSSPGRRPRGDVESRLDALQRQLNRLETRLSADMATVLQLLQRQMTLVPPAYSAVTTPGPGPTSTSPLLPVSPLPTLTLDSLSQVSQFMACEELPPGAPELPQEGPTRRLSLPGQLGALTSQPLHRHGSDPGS

[12] = Oral bioavailability in rat at 10 mg/kg; format: ADME, organism-based; details: in vivo
[13] = Cmax in rat at 10 mg/kg, po; format: ADME, organism-based; parameters: route oral, dose 10 mg/kg; details: in vivo
[14] = Volume of distribution at steady state in rat at 3 mg/kg, iv; format: ADME, organism-based; details: in vivo, read-out: Vdss
[15] = Metabolic stability in human liver microsomes assessed as intrinsic clearance; format: ADME, Microsome; details: read-out: CLH
Cytochrome P450 3A4 = Cytochrome P450 3A4 (Homo sapiens, UniProt P08684); test: Inhibition of CYP3A4 (unknown origin) using midazolam as substrate; format: ADME
Sequence of Cytochrome P450 3A4 (P08684 whole entry): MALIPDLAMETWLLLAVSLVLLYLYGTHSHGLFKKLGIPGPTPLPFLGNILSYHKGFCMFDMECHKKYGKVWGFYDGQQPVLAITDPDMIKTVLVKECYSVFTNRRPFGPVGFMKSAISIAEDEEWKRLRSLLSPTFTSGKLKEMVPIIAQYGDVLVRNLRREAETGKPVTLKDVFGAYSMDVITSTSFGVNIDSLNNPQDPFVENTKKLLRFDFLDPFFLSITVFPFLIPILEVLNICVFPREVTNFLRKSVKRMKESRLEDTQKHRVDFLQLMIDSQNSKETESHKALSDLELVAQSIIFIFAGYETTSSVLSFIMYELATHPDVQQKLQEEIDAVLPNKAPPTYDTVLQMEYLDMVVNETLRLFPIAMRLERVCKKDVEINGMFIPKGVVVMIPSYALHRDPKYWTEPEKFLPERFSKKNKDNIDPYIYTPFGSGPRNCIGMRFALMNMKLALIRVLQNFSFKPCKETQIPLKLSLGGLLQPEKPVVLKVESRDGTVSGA

[16] = Permeability of compound by PAMPA assay; format: ADME
[17] = Solubility in DMSO at pH 6.8 by high-throughput solubility assay; format: physicochemical
[18] = biological target: Hepatocyte growth factor receptor (Homo sapiens, UniProt P08581); test: Inhibition of MET (unknown origin)
[19] = biological target: Tyrosine-protein kinase ABL1 (Homo sapiens, UniProt P00519); test: Inhibition of ABL (unknown origin)
[20] = biological target: Tyrosine-protein kinase Lck (Homo sapiens, UniProt P06239); test: Inhibition of LCK (unknown origin)
[21] = biological target: Vascular endothelial growth factor receptor 2 (Homo sapiens, UniProt P35968); test: Inhibition of KDR (unknown origin)
[22] = biological target: RAC-alpha serine/threonine-protein kinase (Homo sapiens, UniProt P31749); test: Inhibition of AKT (unknown origin)
KARPAS-299 [23] = test: Antitumor activity against human KARPAS-299 cells harboring NMP-ALK xenografted in SCID mouse assessed as tumor regression by measuring T/C ratio at 50 mg/kg administered for 9 days and measured on day 9 (reference value: 100 %); format: functional; details: time 9 day
[24] = biological target: Tyrosine-protein kinase BTK (Homo sapiens, UniProt Q06187); test: Inhibition of BTK (unknown origin)
[25] = biological target: Serine/threonine-protein kinase PLK1 (Homo sapiens, UniProt P53350); test: Inhibition of PLK1 (unknown origin)
[26] = Inhibition of Aurora (unknown origin); parameters: species or system Homo sapiens
Ephrin type-B receptor 4 = Ephrin type-B receptor 4 (Homo sapiens, UniProt P54760); test: Inhibition of EphB4 (unknown origin)
[27] = biological target: Tyrosine-protein kinase JAK3 (Homo sapiens, UniProt P52333); test: Inhibition of JAK3 (unknown origin)
[28] = biological target: Mast/stem cell growth factor receptor Kit (Homo sapiens, UniProt P10721); test: Inhibition of c-KIT (unknown origin)
[29] = biological target: NPM/ALK (Nucleophosmin/ALK tyrosine kinase receptor) (Homo sapiens, UniProt Q9UM73); test: Inhibition NMP-ALK (unknown origin); format: protein assay
Ephrin type-A receptor 4 = Ephrin type-A receptor 4 (Homo sapiens, UniProt P54764); test: Inhibition of EphA4 (unknown origin)
[30] = biological target: Receptor tyrosine-protein kinase erbB-2 (Homo sapiens, UniProt P04626); test: Inhibition of HER2 (unknown origin)
[31] = biological target: Fibroblast growth factor receptor 4 (Homo sapiens, UniProt P22455); test: Inhibition of FGFR4 (unknown origin)
[32] = biological target: Insulin-like growth factor 1 receptor (Homo sapiens, UniProt P08069); test: Inhibition of IGF-1R (unknown origin)
[33] = biological target: Tyrosine-protein kinase JAK2 (Homo sapiens, UniProt O60674); test: Inhibition of JAK2 (unknown origin)
[34] = biological target: Mitogen-activated protein kinase 1 (Homo sapiens, UniProt P28482); test: Inhibition of MAPK1 (unknown origin)
[35] = biological target: Tyrosine-protein kinase SYK (Homo sapiens, UniProt P43405); test: Inhibition of SYK (unknown origin)
[36] = biological target: Proto-oncogene tyrosine-protein kinase receptor Ret (Homo sapiens, UniProt P07949); test: Inhibition of RET (unknown origin)
Sequence of Proto-oncogene tyrosine-protein kinase receptor Ret (P07949 whole entry): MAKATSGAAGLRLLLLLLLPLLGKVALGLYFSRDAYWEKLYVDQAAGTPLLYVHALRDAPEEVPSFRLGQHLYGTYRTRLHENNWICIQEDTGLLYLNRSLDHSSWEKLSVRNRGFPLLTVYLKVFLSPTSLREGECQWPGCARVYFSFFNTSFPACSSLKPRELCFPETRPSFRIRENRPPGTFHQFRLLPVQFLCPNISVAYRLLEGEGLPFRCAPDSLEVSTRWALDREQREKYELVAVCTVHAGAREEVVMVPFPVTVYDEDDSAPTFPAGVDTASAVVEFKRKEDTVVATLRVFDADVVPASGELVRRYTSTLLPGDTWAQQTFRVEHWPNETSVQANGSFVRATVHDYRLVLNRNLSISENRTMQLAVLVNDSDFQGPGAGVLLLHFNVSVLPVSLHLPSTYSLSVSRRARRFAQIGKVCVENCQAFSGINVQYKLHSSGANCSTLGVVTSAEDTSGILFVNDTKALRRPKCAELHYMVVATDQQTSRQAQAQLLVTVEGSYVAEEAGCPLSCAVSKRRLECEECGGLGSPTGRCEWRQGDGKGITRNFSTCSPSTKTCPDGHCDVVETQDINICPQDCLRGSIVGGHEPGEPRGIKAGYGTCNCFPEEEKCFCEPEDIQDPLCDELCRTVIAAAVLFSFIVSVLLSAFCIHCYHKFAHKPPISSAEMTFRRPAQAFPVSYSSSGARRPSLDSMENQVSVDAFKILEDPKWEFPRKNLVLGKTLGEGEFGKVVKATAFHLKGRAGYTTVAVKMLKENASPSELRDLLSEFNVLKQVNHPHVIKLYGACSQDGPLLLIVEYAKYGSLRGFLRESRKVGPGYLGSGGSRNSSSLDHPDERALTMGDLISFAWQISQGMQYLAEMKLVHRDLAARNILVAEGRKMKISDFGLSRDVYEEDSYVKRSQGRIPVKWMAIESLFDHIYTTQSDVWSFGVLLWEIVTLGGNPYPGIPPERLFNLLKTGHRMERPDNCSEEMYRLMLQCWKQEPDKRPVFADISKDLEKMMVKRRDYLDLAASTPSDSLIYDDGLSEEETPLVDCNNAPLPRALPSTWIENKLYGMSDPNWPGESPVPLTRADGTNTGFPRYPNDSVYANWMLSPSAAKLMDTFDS

[37] = biological target: Cyclin-dependent kinase 2 (Homo sapiens, UniProt P24941); test: Inhibition of CDK2 (unknown origin)
[38] = biological target: Tyrosine-protein kinase JAK1 (Homo sapiens, UniProt P23458); test: Inhibition of JAK1 (unknown origin)
EML4-ALK = EML4-ALK (Homo sapiens, UniProt Q9UM73); test: Inhibition EML4-ALK (unknown origin); format: protein assay
[39] = biological target: Epidermal growth factor receptor (Homo sapiens, UniProt P00533); test: Inhibition of HER1 (unknown origin)
[40] = biological target: Fibroblast growth factor receptor 3 (Homo sapiens, UniProt P22607); test: Inhibition of FGFR3 (unknown origin)
[41] = Toxicity in SCID mouse xenografted with human KARPAS-299 cells harboring NMP-ALK assessed as reduction in body weight at 25 to 50 mg/kg administered for 9 days and measured on day 9; format: organism-based; details: in vivo, 216 h, dose 25-50 mg/kg, time 9 day
KARPAS-299 [42] = test: Antitumor activity against human KARPAS-299 cells harboring NMP-ALK xenografted in SCID mouse assessed as tumor shrinkage by measuring T/C ratio at 25 mg/kg administered for 9 days and measured on day 9 (reference value: 100 %); format: functional; details: time 9 day
KARPAS-299 [43] = test: Antitumor activity against human KARPAS-299 cells harboring NMP-ALK xenografted in SCID mouse assessed as tumor regression administered for 9 days and measured on day 9; format: functional; details: time 9.0 day
[44] = biological target: Non-receptor tyrosine-protein kinase TYK2 (Homo sapiens, UniProt P29597); test: Inhibition of TYK2 (unknown origin)
[45] = biological target: Glycogen synthase kinase-3 beta (Homo sapiens, UniProt P49841); test: Inhibition of GSK3beta (unknown origin)
Sequence of Glycogen synthase kinase-3 beta (P49841 whole entry): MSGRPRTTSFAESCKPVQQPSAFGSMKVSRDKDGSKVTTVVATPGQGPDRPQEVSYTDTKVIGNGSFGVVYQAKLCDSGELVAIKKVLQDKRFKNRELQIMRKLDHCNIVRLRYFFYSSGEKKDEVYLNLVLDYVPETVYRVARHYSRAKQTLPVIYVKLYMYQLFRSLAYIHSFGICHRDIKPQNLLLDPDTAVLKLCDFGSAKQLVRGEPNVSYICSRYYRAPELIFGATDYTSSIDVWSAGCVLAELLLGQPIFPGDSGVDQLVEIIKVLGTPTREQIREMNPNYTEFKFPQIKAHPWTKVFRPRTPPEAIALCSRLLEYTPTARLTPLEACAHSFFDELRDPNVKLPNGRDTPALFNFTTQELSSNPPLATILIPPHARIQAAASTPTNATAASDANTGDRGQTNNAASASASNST

[46] = biological target: Platelet-derived growth factor receptor alpha (Homo sapiens, UniProt P16234); test: Inhibition of PDGFRalpha (unknown origin)

Sequence of ALK tyrosine kinase receptor (Q9UM73 whole entry): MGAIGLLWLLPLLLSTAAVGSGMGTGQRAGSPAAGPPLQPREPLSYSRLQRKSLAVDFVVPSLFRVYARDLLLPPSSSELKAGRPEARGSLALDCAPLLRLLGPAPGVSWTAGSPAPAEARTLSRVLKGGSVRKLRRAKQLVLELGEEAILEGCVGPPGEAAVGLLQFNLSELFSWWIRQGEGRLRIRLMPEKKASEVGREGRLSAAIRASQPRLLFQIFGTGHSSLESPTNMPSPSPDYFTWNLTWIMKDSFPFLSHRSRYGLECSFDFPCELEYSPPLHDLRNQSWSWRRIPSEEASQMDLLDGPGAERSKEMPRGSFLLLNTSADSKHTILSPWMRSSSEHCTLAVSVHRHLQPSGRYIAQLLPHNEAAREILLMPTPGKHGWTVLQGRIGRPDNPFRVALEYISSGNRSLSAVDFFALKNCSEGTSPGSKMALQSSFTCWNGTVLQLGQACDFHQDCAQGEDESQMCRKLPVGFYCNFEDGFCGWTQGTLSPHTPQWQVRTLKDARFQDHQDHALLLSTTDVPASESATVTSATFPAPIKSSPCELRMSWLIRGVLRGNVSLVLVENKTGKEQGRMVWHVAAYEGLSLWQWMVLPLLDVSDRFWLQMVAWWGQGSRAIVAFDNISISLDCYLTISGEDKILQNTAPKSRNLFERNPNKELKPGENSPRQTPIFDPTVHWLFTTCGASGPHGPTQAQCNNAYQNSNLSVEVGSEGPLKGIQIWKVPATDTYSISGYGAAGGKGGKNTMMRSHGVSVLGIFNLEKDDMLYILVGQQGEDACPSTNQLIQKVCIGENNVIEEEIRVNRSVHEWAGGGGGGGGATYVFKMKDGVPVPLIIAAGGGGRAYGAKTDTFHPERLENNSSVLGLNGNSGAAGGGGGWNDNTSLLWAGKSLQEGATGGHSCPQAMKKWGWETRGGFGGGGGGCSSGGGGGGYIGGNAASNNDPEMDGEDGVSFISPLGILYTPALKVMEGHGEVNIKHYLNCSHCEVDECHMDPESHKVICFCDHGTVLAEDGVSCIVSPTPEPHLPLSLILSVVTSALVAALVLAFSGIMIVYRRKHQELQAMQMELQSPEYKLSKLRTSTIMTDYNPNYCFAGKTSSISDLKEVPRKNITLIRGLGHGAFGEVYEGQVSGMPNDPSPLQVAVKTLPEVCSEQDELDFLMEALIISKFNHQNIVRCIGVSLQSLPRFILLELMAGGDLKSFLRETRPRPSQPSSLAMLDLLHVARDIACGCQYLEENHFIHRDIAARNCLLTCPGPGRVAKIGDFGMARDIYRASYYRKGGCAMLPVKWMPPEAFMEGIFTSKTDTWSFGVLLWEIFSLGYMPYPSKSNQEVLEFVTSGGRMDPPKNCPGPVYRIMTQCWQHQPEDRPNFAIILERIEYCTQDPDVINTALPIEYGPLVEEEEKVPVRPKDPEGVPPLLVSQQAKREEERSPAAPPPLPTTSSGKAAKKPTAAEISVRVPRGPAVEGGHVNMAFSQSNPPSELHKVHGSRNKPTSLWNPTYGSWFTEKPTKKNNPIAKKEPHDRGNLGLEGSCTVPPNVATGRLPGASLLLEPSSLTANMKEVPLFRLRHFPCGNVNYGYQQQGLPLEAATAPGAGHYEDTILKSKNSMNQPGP

IC50 (BaF3): 4.91 µM
IC50 [1]: > 25 µM
SMILES: Cc1cc(Nc2cc(Nc3ccccc3S(=O)(=O)C(C)C)c3cc[nH]c3n2)c(OC(C)C)cc1C1CCN(C)CC1

IC50 (BaF3): 7.23 µM
SMILES: Cc1cc(Nc2nc(Nc3ccccc3S(=O)(=O)C(C)C)c3cccnc3n2)c(OC(C)C)cc1C1CCNCC1

IC50 (BaF3): 5.41 µM
SMILES: Cc1cc2c(Nc3ccccc3S(=O)(=O)C(C)C)nc(Nc3cc(C)c(C4CCNCC4)cc3OC(C)C)nc2[nH]1

IC50 (BaF3): 2.6 µM
SMILES: Cc1cc(Nc2cc(Nc3ccccc3S(=O)(=O)C(C)C)nc3[nH]ccc23)c(OC(C)C)cc1C1CCN(C)CC1

IC50 (BaF3): 3.24 µM
SMILES: Cc1cc(Nc2nc(Nc3ccccc3S(=O)(=O)C(C)C)c3ccccc3n2)c(OC(C)C)cc1C1CCN(C)CC1

clearance [2]: 58 mL/min/kg
AUC [3]: 7.19 µM·h
clearance [4]: 15 mL/min/kg
microsomal CLint [5]: 62 µL/min/mg
IC50 (BaF3): 3.42 µM
AUC [6]: 5.98 µM·h
Cmax [7]: 425 nM
bioavailability [8]: 59%
Vd [9]: 10.8 L/kg
microsomal CLint [10]: 34 µL/min/mg
bioavailability [12]: 35%
Cmax [13]: 291 nM
Vd [14]: 13.7 L/kg
microsomal CLint [15]: 25 µL/min/mg
IC50 (Cytochrome P450 3A4): 4.5 µM
log(permeability) [16]: < -3.3
solubility [17]: 10.4 µM (≈ 6 µg/mL)
SMILES: Cc1cc(Nc2nc(Nc3ccccc3S(=O)(=O)C(C)C)c3cc[nH]c3n2)c(OC(C)C)cc1C1CCN(C)CC1
IC50 [11]: 1.7 µM

IC50 [18]: 8.1 µM
IC50 [19]: 1.4 µM
IC50 [20]: 4.3 µM
clearance [2]: 71 mL/min/kg
IC50 [21]: 7.4 µM
AUC [3]: 3.07 µM·h
clearance [4]: 32 mL/min/kg
IC50 [22]: 7.6 µM
microsomal CLint [5]: 13 µL/min/mg
IC50 (BaF3): 2.51 µM
IC50 [24]: 9.4 µM
AUC [6]: 4.9 µM·h
IC50 [25]: 3.9 µM
Cmax [7]: 429 nM
IC50 [26]: > 10 µM
IC50 (Ephrin type-B receptor 4): 2.9 µM
bioavailability [8]: 58%
IC50 [27]: > 10 µM
IC50 [28]: > 10 µM
Vd [9]: 12.1 L/kg
IC50 [29]: 0.03 µM
IC50 (Ephrin type-A receptor 4): > 10 µM
microsomal CLint [10]: 33 µL/min/mg
IC50 [30]: 7.8 µM
IC50 [31]: > 10 µM
IC50 [32]: 0.47 µM
bioavailability [12]: 35%
Cmax [13]: 151 nM
IC50 [33]: > 10 µM
Vd [14]: 19.4 L/kg
IC50 [34]: > 10 µM
IC50 [1]: 0.004 µM
IC50 [35]: > 10 µM
IC50 [36]: 3.6 µM
IC50 [37]: 0.92 µM
IC50 [38]: > 10 µM
IC50 (EML4-ALK): 0.01 µM
IC50 [39]: 0.96 µM
IC50 [40]: > 10 µM
microsomal CLint [15]: 19 µL/min/mg
IC50 (Cytochrome P450 3A4): > 25 µM
log(permeability) [16]: -4.9
solubility [17]: 114 µM (≈ 67.5 µg/mL)
IC50 [44]: > 10 µM
IC50 [45]: 4.3 µM
IC50 [46]: 9.7 µM
SMILES: Cc1cc(Nc2nc(Nc3ccccc3S(=O)(=O)C(C)C)c3c(C)[nH]nc3n2)c(OC(C)C)cc1C1CCN(C)CC1
T/C (KARPAS-299 [23]): -54%
IC50 [11]: 20.8 µM
Activity [41]: Non-Toxic
T/C (KARPAS-299 [42]): 37%
Activity (KARPAS-299 [43]): Dose-dependent effect

microsomal CLint [5]: 37 µL/min/mg
IC50 (BaF3): 5.12 µM
microsomal CLint [10]: 30 µL/min/mg
microsomal CLint [15]: 32 µL/min/mg
IC50 (Cytochrome P450 3A4): 3.3 µM
log(permeability) [16]: -4.1
solubility [17]: > 175 µM
SMILES: Cc1cc(Nc2nc(Nc3ccccc3S(=O)(=O)C(C)C)c3cn[nH]c3n2)c(OC(C)C)cc1C1CCN(C)CC1
IC50 [11]: 1 µM

IC50 (BaF3): 5.54 µM
SMILES: Cc1cc(Nc2nc(Nc3ccccc3S(=O)(=O)C(C)C)c3c(C)n[nH]c3n2)c(OC(C)C)cc1C1CCNCC1

IC50 (BaF3): 4.5 µM
SMILES: Cc1cc(Nc2nc(Nc3ccccc3S(=O)(=O)C(C)C)c3c(N)n[nH]c3n2)c(OC(C)C)cc1C1CCN(C)CC1

IC50 (BaF3): 5.73 µM
SMILES: Cc1cc2c(Nc3ccccc3S(=O)(=O)C(C)C)nc(Nc3cc(C)c(C4CCN(C)CC4)cc3OC(C)C)nc2[nH]1

clearance [2]: 40 mL/min/kg
microsomal CLint [5]: 15 µL/min/mg
IC50 (BaF3): 2.22 µM
AUC [6]: 0.406 µM·h
Cmax [7]: 51 nM
bioavailability [8]: 3%
Vd [9]: 7.3 L/kg
microsomal CLint [10]: 14 µL/min/mg
microsomal CLint [15]: 22 µL/min/mg
IC50 (Cytochrome P450 3A4): 4.6 µM
log(permeability) [16]: -5.7
solubility [17]: 8.1 µM (≈ 4.56 µg/mL)
SMILES: Cc1cc(Nc2nc(Nc3ccccc3S(=O)(=O)C(C)C)c3cc[nH]c3n2)c(OC(C)C)cc1C1CCNCC1

IC50 (BaF3): 3.94 µM
SMILES: COc1ccc2nc(Nc3cc(C)c(C4CCN(C)CC4)cc3OC(C)C)nc(Nc3ccccc3S(=O)(=O)C(C)C)c2c1

IC50 (BaF3): > 10 µM
SMILES: Cc1cc(Nc2nc(Nc3ccccc3S(=O)(=O)C(C)C)c3[nH]nnc3n2)c(OC(C)C)cc1C1CCN(C)CC1

IC50 (BaF3): 6.22 µM
SMILES: Cc1cc(Nc2nc(Nc3ccccc3S(=O)(=O)C(C)C)c3cn[nH]c3n2)c(OC(C)C)cc1C1CCNCC1

IC50 (BaF3): 2.03 µM
SMILES: Cc1cc(NC2=NC3NCCCC3C(Nc3ccccc3S(=O)(=O)C(C)C)=N2)c(OC(C)C)cc1C1CCNCC1 (configuration not stated)

Source: ChEMBL document CHEMBL4715698, “Design and synthesis of novel selective anaplastic lymphoma kinase inhibitors” (Bioorg Med Chem Lett, 2016)
